Literature values in US20160022811A1 (Teva Pharmaceutical Industries Ltd., priority 2013, published 2016).

System: relapsing-remitting MS (RRMS)
Conditions: registration trials, comparison with placebo

L-glutamic acid polymer with L-alanine, L-lysine, L-tyrosine, acetate (salt) [glatiramer acetate]
reduction of relapse rate: about one third
